Laboratory results taken from patent US20230126310A1 (priority 2020, published 2023).
Counter-ions that a name gives are not always drawn. Like-named read-outs stand apart in the source and are kept apart here.

Experiments:
SARS-CoV-2 [1] = settings: for % Inh. (% Inhibition of SARS-CoV-2): 10 µM
SARS-CoV-2 [2] = assay: microbe, parasite or virus in culture; settings: Severe acute respiratory syndrome coronavirus 2, Caco-2, 48 h; for inhibition at 10 µM: read-out: % Inh. (% Inhibition of SARS-CoV-2)

Compound	% Inh. (% Inhibition of SARS-CoV-2) (SARS-CoV-2 [1]) [%]	inhibition at 10 µM (SARS-CoV-2 [2]) [%]	further results
COc1ccccc1C1(O)CCN(CCCn2c3ccccc3c3ccccc32)CC1 [NNC-05-2090]	71.8		
Cc1ncc(-c2ccnc(Nc3ccc(S(C)(=O)=O)cc3)n2)n1C(C)C [AZD5438]	67.2		
Rupatadine Fumarate	72.1		
CCCCCCCC/C=C/CCCCCCCC(=O)OC[C@H]1O[C@@H](n2ccc(N)nc2=O)C(F)(F)[C@@H]1O [Gemcitabine (elaidate)]	111.3		
O=C1OC2(c3cc(I)c(O)c(I)c3Oc3c2cc(I)c(O)c3I)c2c(Cl)c(Cl)c(Cl)c(Cl)c21 [rose-bengal-lactone]	57.6		
CC(C)(O)c1ccn2c(-c3ccc(F)c(-c4ccc(F)cc4C#N)c3)cnc2c1F [TP-003]	100.8		
niguldipine-(S)-(+)	93.0		
COc1cc2c(cc1OC)CN(C(=O)/C=C/c1c(-c3ccccc3)n(C)c3ncccc13)CC2 [SIS3]	99.3		
Cc1[nH]nc2ccc(-c3cncc(OC[C@@H](N)Cc4ccccc4)c3)cc12 [A-674563]	53.3		
Nc1[nH]nc2nnc(-c3c(-c4ccccc4)nn4ccccc34)cc12 [FR-180204]	58.8		
CCc1nc2ccc(Cl)cn2c1C(=O)NCc1ccc(N2CCC(c3ccc(OC(F)(F)F)cc3)CC2)cc1 [Q-203]	96.9		
CNC[C@H](O)[C@@H](O)[C@H](O)[C@H](O)CO.CNC[C@H](O)[C@@H](O)[C@H](O)[C@H](O)CO.C[C@@H](O[C@H]1OCCN(Cc2nn(P(=O)(O)O)c(=O)[nH]2)[C@H]1c1ccc(F)cc1)c1cc(C(F)(F)F)cc(C(F)(F)F)c1 [Fosaprepitant dimeglumine salt]	78.3		
CC(C)CNc1ccnc(NCc2csc(-c3ccccc3)n2)n1 [KHS-101]	91.2		
Cc1ccnc(NC(=O)C(C)c2cccc(C(=O)c3ccccc3)c2)c1 (stereo not drawn) [piketoprofen]	72.4		
COCCN1CCN(Cc2ccc(-c3n[nH]c4c3C(=O)c3c(NC(=O)NN5CCOCC5)cccc3-4)cc2)CC1 [RGB-286638 (free base)]	70.2		
CCN1CCN(Cc2ccc(C(=O)Nc3ccc(C)c(Oc4ccc5c(c4)CC(=O)N5)c3)cc2C(F)(F)F)CC1 [DDR1-IN-1]	77.6		
CC(C)(C)c1ccc(NC(=O)N2CCN(c3ncccc3Cl)CC2)cc1 [BCTC]	86.4		
CC(C)(N)c1cc(C(=O)N[C@@H]2CCc3ccc(Oc4ccnc5c4CCC(=O)N5)cc3C2)cc(C(F)(F)F)c1 [ML-786]	105.5		
Cc1cc(-c2nc3cc(F)ccc3s2)ccc1NC(=O)[C@@H](N)CCCCN.Cl.Cl [phortress]	67.1		
O=S(=O)(c1cccc2c(Cl)cccc12)N1CCCNCC1 [ML-9]	91.9		
O=S(=O)(NCCCCCCc1ccccc1)c1cccc2c(Cl)cccc12 [SC-9]	83.4		
Cn1c(Nc2ccc(C(F)(F)F)cc2)nc2cc(Oc3ccnc(-c4ncc(C(F)(F)F)[nH]4)c3)ccc21 [RAF265 (CHIR-265)]	93.2		

Compound	% Inh. (% Inhibition of SARS-CoV-2) (SARS-CoV-2 [1]) [%]	inhibition at 10 µM (SARS-CoV-2 [2]) [%]	further results
N#Cc1ccc(-c2csc(NN=C3CCCC3)n2)cc1 [remodelin]	99.4		
O=C(NC1CCN(Cc2ccccc2)CC1)c1ccc(I)cc1 [4-IBP]	89.9		
CCOC(=O)N1CCC(=C2c3ccc(Cl)cc3CCc3cccnc32)CC1 [LORATADINE]			% Inh (% inhibition of virus infection) (SARS-CoV-2 [1]; comparative experiments, Examples 1 and 2): 91.4%
NC(=O)Nc1sc(-c2ccc(F)cc2)cc1C(N)=O [TPCA-1]	103.5		
CC(C)[C@H]1c2ccc(F)cc2CC[C@@]1(CCN(C)CCCc1nc2ccccc2[nH]1)OC(=O)C1CC1 [NNC-55-0396]	58.1		
CCCCCC(O)c1cccc(OCc2ccc3ccccc3n2)c1 [REV-5901/L-655,238]	113.5		
COc1cc2c(cc1OC)CN(C(=O)[C@@H](NCc1ccncc1)C(C)(C)C)CC2 [TCS-OX2-29]	52.7		
O=c1oc(-c2ccc(C(F)(F)F)cc2)nn1Cc1cc(Cl)ccc1O [BMS-191011]	52.3		
FC(F)(F)c1cc(CO[C@H]2CCCN[C@H]2c2ccccc2)cc(C(F)(F)F)c1 [L-733060]	53.9		
COCc1c(-c2ccc(NC(=O)Nc3cc(C(F)(F)F)ccc3F)c(F)c2)c2c(N)ncnn2c1CN1CCOCC1 [ACTB-1003]	97.7		
CCOc1ccc(Nc2nc(-c3c(C)nc4ccccn34)cs2)cc1 [JK-184]	65.2		
Cc1sc2c(c1C)C(c1ccc(Cl)cc1)=N[C@@H](CC(=O)Nc1ccc(OCCOCCOCCOCCNc3cccc4c3C(=O)N(C3CCC(=O)NC3=O)C4=O)cc1)c1nnc(C)n1-2 (stereo partly drawn) [ARV-825]	52.8		
COC(=O)Nc1ccc(-c2nc(N3CCOCC3)c3cnn(C4CCN(Cc5cccnc5)CC4)c3n2)cc1 [WYE-687]	105.8		
CNC(=O)c1ccccc1Nc1nc(Nc2ccc(N3CCOCC3)cc2OC)ncc1Cl [NVP-TAE226]	73.2		
Cc1ccccc1C(=O)c1ccc(Nc2ccc(Br)cc2N)cc1Cl [EO-1428]	66.1		
CNc1ncc2cc(-c3cc(NC(=O)NCCC(C)(C)C)c(F)cc3C)c(C)nc2n1 [LY3009120]	101.6		
Chlorophyllin (sodium copper salt)	66.7		
CCc1c2c(nc3ccc(O)cc13)-c1cc3c(c(=O)n1C2)COC(=O)[C@]3(O)CC [SN-38]	79.2		
Cc1c(NC(=O)OC[C@@H]2COCCN2)cn2ncnc(Nc3ccc4c(cnn4Cc4cccc(F)c4)c3)c12 [BMS-599626]	76.4		
CC(=O)N1CCN(CCOc2ccc(C3CCN(C4=Nn5c(nnc5C(F)(F)F)CC4)CC3)cc2)CC1 [AZD3514]	96.8		
Cc1ccc2cc(-c3c(C)ccc(C(=O)c4c(-c5ccccc5)n(C)n(-c5ccccc5)c4=O)c3N)ccc2n1 [AMG-PERK-44]	127.9		
CCOC(=O)C1=C(C)NC(C)=C(C(=O)OC)C1c1cccc(Cl)c1Cl (stereo not drawn) [FELODIPINE]		51.2	

Compound	% Inh. (% Inhibition of SARS-CoV-2) (SARS-CoV-2 [1]) [%]	inhibition at 10 µM (SARS-CoV-2 [2]) [%]	further results
CNCC(O)c1ccc(OC(=O)C(C)(C)C)c(OC(=O)C(C)(C)C)c1 (stereo not drawn) [dipivefrine]		54	
CCN1C(=O)CNc2ncc(-c3ccc(-c4nc[nH]n4)nc3C)nc21 [CC-115]		96.6	
COc1ccc(C(Cl)=C(c2ccc(OC)cc2)c2ccc(OC)cc2)cc1 [chlorotrianisene]		55.3	
CN(C)C(=O)C(CCN1CCC(O)(c2ccc(Cl)cc2)CC1)(c1ccccc1)c1ccccc1 [LOPERAMIDE HYDROCHLORIDE]		58.9	
CCCn1c(=O)c2[nH]c(-c3ccccc3)nc2n(CCC)c1=O [1,3-dipropyl-8-phenylxanthine]		57.2	
Nc1ccc2cc3ccc(N)cc3nc2c1 [PROFLAVINE HEMISULFATE]		95.8	IC50 (SARS-CoV-2 [2]): 26.7 µM; IC50 (SARS-CoV-2 [2]; read-out: pIC50 (converted)): 26.9 µM
O=c1[nH]c2ccccc2n1C1CCN(CCCC(c2ccc(F)cc2)c2ccc(F)cc2)CC1 [PIMOZIDE]		94	
COc1c(O[C@@H]2O[C@H](CO)[C@@H](O)[C@H](O)[C@H]2O)cc2c(c1OC)-c1ccc(SC)c(=O)cc1[C@@H](NC(C)=O)CC2 [thiocolchicoside]		54.2	
COc1cccc([C@@H](C)NCCCc2ccccc2Cl)c1 [tecalcet]		78.1	
Cc1ccnc2c1CCCC2C(N)=S (stereo not drawn) [isotiquimide]		50	
C[C@@H]1CN(Cc2ccc(F)cc2)[C@@H](C)CN1C(=O)c1cc2c(C(=O)C(=O)N(C)C)cn(C)c2cc1Cl [talmapimod]		92.3	IC50 (SARS-CoV-2 [2]): 22.9 µM; IC50 (SARS-CoV-2 [2]; read-out: pIC50 (converted)): 22.9 µM
NCCC(=O)N[C@@H](Cc1cnc[nH]1)C(=O)O [Carnosine]		94.3	
Cc1nc(Nc2ncc(C(=O)Nc3c(C)cccc3Cl)s2)cc(N2CCN(CCO)CC2)n1 [Dasatinib]		52.7	
CC(=O)CC(c1ccc([N+](=O)[O-])cc1)c1c(O)c2ccccc2oc1=O (stereo not drawn) [Acenocoumarin]		64.2	
N#CC(=C(/N)Sc1ccccc1N)/C(C#N)=C(\N)Sc1ccccc1N [U-0126]		79.1	
Clc1ccc(C(Cn2ccnc2)OCc2csc3c(Cl)cccc23)c(Cl)c1 (stereo not drawn) [Sertaconazole nitrate]		88.9	
N#CC1(c2ccc(NC(=O)c3cccnc3NCc3ccncc3)cc2)CCCC1 [Apatinib mesylate]		70.9	
CN1CCc2cc3c(cc2C1O)OCO3 (stereo not drawn) [HYDRASTININE HYDROCHLORIDE]		56.3	
Cc1ccccc1-n1c(CF)nc2ccc(N)cc2c1=O [Afloqualone]		50.1	
CCCCN(CC)c1nc(C)nc2c1c(C)c(C)n2-c1c(C)cc(C)cc1C [antalarmin]		59	
CCNC(=O)c1noc(-c2cc(C(C)C)c(O)cc2O)c1-c1ccc(CN2CCOCC2)cc1 [Luminespib]		104	
